Source: PubChem BioAssay AID179 (DTP/NCI, 2004)
Values joined by “and” are separate entries in the source; they are usually repeats but may differ in a detail not shown here. Equal entries are not always repeated. Active and inactive are the calls of the source.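 The calls were made as follows: active = compounds giving half or more protection of infected cells from virus-caused growth loss, again on retest; inactive = the rest.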

Test system: CEM cells HIV-1 protection, formazan growth assay
Assay: NCI AIDS Antiviral Assay
Settings: for IC50: measured here: growth of uninfected CEM cells
In short: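 Screen of anti-HIV-1 activity in human CEM cells using a formazan-based growth measurement at five drug concentrations. Hits with 50% or greater protection were repeated, and confirmation required reproducible complete protection.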

| SMILES | EC50 [µM] | IC50 | outcome |
| --- | --- | --- | --- |
| COC1CC(C)C(OC)C2=CC(=O)C=C(NC(=O)/C(C)=C/C=C\C(C)C(OC(N)=O)/C(C)=C\C(C)C1OC)C2=O (centres undefined) | > 2 | 0.204 µM |  |
| COC1OOC(OC)c2ccccc2-c2ccccc21 (centres undefined) | > 200 | 12.3 µM |  |
| O=C(O)C1CCCCC1c1c2ccc(=O)cc-2oc2cc(O)ccc12 (centres undefined) | > 200 | 10.7 µM |  |
| O=C(CC(=O)c1ccccc1)CC(O)(c1ccccc1)c1ccccc1 | > 11 | > 11 µM |  |
| O=C(/C=C/c1ccccc1)c1cc2c(cc1O)OCO2 | > 70.8 | 5.25 µM |  |
| COC(=O)C(Cc1ccccc1)OC(=O)C(N)CC(=O)O (centres undefined) | > 200 | > 200 µM |  |
| O=C(c1ccc(Cl)cc1)c1ccc(OCCCCCCCCCCOc2ccc(C(=O)c3ccc(Cl)cc3)cc2)cc1 | > 16.6 | > 16.6 µM |  |
| O=C1NC2CCC(C2)C1c1ccccc1 (centres undefined) |  |  | inactive |
| Cc1ccccc1C(C#N)C(=O)C(=O)Nc1nc([N+](=O)[O-])cs1 (centres undefined) | > 7.94 | > 7.94 µM |  |
| O=C(C[P+](c1ccccc1)(c1ccccc1)c1ccccc1)c1ccc(Br)cc1 | > 200 | 14.8 µM |  |
| Cc1c(-c2ccccc2)c(=O)oc2c3c(ccc12)OC(C)(C)[C@H](OC(=O)C12CCC(C)(C(=O)O1)C2(C)C)[C@@H]3OC(=O)C12CCC(C)(C(=O)O1)C2(C)C (some centres undefined) | > 100 | > 100 µM |  |
| COc1ccc2c(c1OC)C13CCCC[C@H]1C(C2)[N+](C)(C)CC3 (some centres undefined) | > 562 | > 562 µM |  |
| CCN1C(=O)CCCCC(=O)Nc2ccccc2-c2ccccc21 |  |  | inactive |
| Cc1ncc([N+](=O)[O-])n1CCO | > 200 | > 200 µM |  |
| O=C(CC1(O)C(=O)Nc2ccccc21)c1ccc(Cl)c(Cl)c1 (centres undefined) |  |  | inactive |
| COc1cccc(NC(=O)CC(=O)N2N=C(C)C(N=Nc3ccc(S(=O)(=O)c4ccc(N=NC5C(=O)N(C(=O)CC(=O)Nc6cccc(OC)c6)N=C5C)cc4)cc3)C2=O)c1 (centres undefined) | 178 | > 200 µM |  |
| Cc1cc(NCCCCCCNc2cc(C)nc3ccc(N)cc23)c2cc(N)ccc2n1 |  | 10.7 µM and 72.4 µM |  |
| CC12CCC(C=C1N1CCCCC1)C(C)(C)O2 (centres undefined) | > 1070 | > 1070 µM |  |
| CC1CC(C)(C)NCCNC(C)CC(C)(C)NCCN1 (centres undefined) | 195 | > 200 µM |  |
| OC1c2ccccc2-c2nc3cccccc-3c21 (centres undefined) | > 155 | 24 µM |  |
| c1ccc2c(c1)C1=NCCN1c1ccccc1-2 | > 309 | 1.86 µM |  |

| SMILES | EC50 [µM] | IC50 | outcome |
| --- | --- | --- | --- |
| CC1(c2ccc(F)cc2)C(C#N)C(=O)NC(=O)C1C#N (centres undefined) | > 912 | 170 µM |  |
| O=c1c(-c2ccc(O)cc2)coc2cc(O)cc(O)c12 | > 200 | 5.62 µM |  |
| Cc1c(-c2c(C)c(=O)c3c(C(C)C)c(=O)c(=O)c(C=O)c-3c2=O)c(O)c2c(C=O)c(O)c(O)c(C(C)C)c2c1O | > 13.2 | 7.08 µM |  |
| FC(F)(F)c1ccc(C2SCc3nc4ccccc4n32)cc1 (centres undefined) |  |  | inactive |
| COC(=O)NN/C=C(\C=Nc1ccccc1)[N+](=O)[O-] | > 97.7 | 87.1 µM |  |
| CC1C(c2ccccc2)SC(=N)N1C (centres undefined) | > 417 | 257 µM |  |
| Oc1cc2ccccc2cc1OC(F)(F)c1nc2ccccc2o1 | > 200 | 12.3 µM |  |
| OC(CC(O)(C(F)(F)F)C(F)(F)F)c1cccs1 (centres undefined) | > 200 | 93.3 µM |  |
| Cc1ccc(S(=O)(=O)NCCCSCCO)cc1 | > 871 | 5.75 µM |  |
| CCN(CC)CC(=N)N(CC)c1ccccc1 | > 417 | 195 µM |  |
| CCOC(=O)C(=O)CC(=O)C1=C(c2ccccc2OC)CC(c2cccs2)=CC1=O | > 200 | 32.4 µM |  |
| O=C(/C=C/c1c(O)ccc2ccccc12)c1cccc(O)c1 | > 617 | 91.2 µM |  |
| CCOC(=O)C(CC)c1cc2n(c(=O)c1C#N)CCC21OCCO1 (centres undefined) | > 200 | > 200 µM |  |
| O=C1NC(CO)(CO)CO1 | > 200 | > 200 µM |  |
| O=C(O)COc1c2occc2cc2ccc(=O)oc12 | > 347 | > 347 µM |  |
| C(=C/[PH+](c1ccccc1)c1ccccc1)/[PH+](c1ccccc1)c1ccccc1.O=C([O-])C(F)(F)F.[C-]#[O+].[C-]#[O+].[C-]#[O+].[Mn] | > 8.13 | 0.589 µM |  |
| C=C1OC(=O)/C(=C/CCCCCCCCCCCCCCCCC)[C@@H]1O | > 27.5 | > 27.5 µM |  |
| CC1(C)Oc2ccc(NC(=O)CCC(N)C(=O)O)cc2O1 (centres undefined) | 186 | > 200 µM |  |
| CCOC(=O)c1cc(Br)c(-c2cc(C)co2)[nH]1 | > 200 | > 200 µM |  |
| COC(=O)C1=C(C(=O)OC)N(c2ccncc2)C(c2ccco2)=CC1c1ccccc1[N+](=O)[O-] (centres undefined) | > 74.1 | 7.24 µM |  |
| Cc1cc(C)nc(NS(=O)(=O)c2ccc(Nc3c4ccccc4nc4c(C(=O)Nc5ccc(S(=O)(=O)N=C(N)N)cc5)ccc(Cl)c34)cc2)n1 | > 93.3 | 69.2 µM |  |

| SMILES | EC50 [µM] | IC50 | outcome |
| --- | --- | --- | --- |
| O=C1CN(CCCN2CCOCC2)CC(=O)N2Cc3ccccc3CN12 | > 200 | > 200 µM |  |
| C=[N+]([O-])CC[C@@]1(O)C[C@H](n2ccc(=O)[nH]c2=O)O[C@@H]1CO[Si](C)(C)C(C)(C)C | > 200 | 44.7 µM |  |
| CCn1c(O)c(C=Nc2ccccc2)s/c1=N/Nc1nc(C)cs1 | > 200 | 174 µM |  |
| O=C1c2c(O)ccc([N+](=O)[O-])c2C(=O)c2c(O)ccc(Nc3cccc(CO)c3)c21 | > 200 | 0.724 µM |  |
| Cc1nc(N)nc2c1CCC(O)S2 (centres undefined) | > 200 | 1.02 µM |  |
| CN(C)c1ncnc2c1ncn2C1OC(CO)C2NP(=O)(N(CCCl)CCCl)OC21 (centres undefined) | > 200 | > 200 µM |  |
| CCOC(=O)c1nc(C)c(-c2ccccc2)c(-c2ccccc2)c1C | > 11.5 | > 11.5 µM |  |
| COc1cccc2c1OC(=O)C(S(=O)(=O)c1ccccc1)C2 (centres undefined) | > 562 | > 562 µM |  |
| N#CCCN(C(=O)Nc1ccc(NC(=O)N(CCC#N)c2ccccc2)cc1)c1ccccc1 | > 200 | > 200 µM |  |
| CS(=O)(=O)OCCN1CCC2(CC1)SSC1(CCN(CCOS(C)(=O)=O)CC1)S2 | > 200 | 28.2 µM |  |
| CCN1C(=O)CS/C1=N\NC(=O)CSc1nc2ccccc2c(=O)n1CC | > 200 | 151 µM |  |
| CCOC(=O)c1cc(-c2ccccc2)c(=O)c(OC)nc1-c1ccccc1 | > 200 | 74.1 µM |  |
| NC(=O)C(=Cn1c(=S)[nH]c2ccc([N+](=O)[O-])cc21)C(N)=O | > 200 | > 200 µM |  |
| Cc1ccc2cc([N+](=O)[O-])c3ccc(C)nc3c2n1.Cc1ccc2cc([N+](=O)[O-])c3ccc(C)nc3c2n1.O=C1OC(C(O)C[O-])C(O)=C1O.[Cu+] | > 12.6 | 1.82 µM |  |
| CN=C(N)N=Nc1c(O)[nH]c2ccccc12 | > 200 | > 200 µM |  |
| NNc1nnc(-c2nnc(NN)o2)o1 | > 200 | > 200 µM |  |
| COC(=O)C(=O)C(C(=O)C(=O)Nc1ccccc1C(N)=O)c1nc2ccc([N+](=O)[O-])cc2[nH]c1=O (centres undefined) | > 525 | 372 µM |  |
| C[C@H](CCc1nc(C#N)c(N)o1)[C@H]1CC[C@H]2[C@@H]3CCC4C[C@@H](O)CC[C@]4(C)[C@H]3C[C@@H](O)[C@]12C (some centres undefined) | > 20 | 1.95 µM |  |
| c1ccc(CC2(c3cc4ccccc4[nH]3)OCCO2)nc1 | > 200 | 174 µM |  |
| O=C(CC(c1ccccc1)c1ccccc1)NCCCCN1CCCCCCC1 | > 200 | 12.9 µM |  |
